Earlier results, collected in patent publication US20230210865A1, “MIDAZOLAM PREMIX FORMULATIONS AND USES THEREOF” (Baxter International, Inc., priority 2021, published 2023).
Structures can show the parent of a compound that is named as a salt.

SMILES: Cc1ncc2n1-c1ccc(Cl)cc1C(c1ccccc1F)=NC2 [Midazolam HCl, 8-chloro-6-(2-fluorophenyl)-1-methyl-4H-imidazo[1,5-a][1,4]benzodiazepine hydrochloride]
- Onset time of sedative effects (after intramuscular administration in adults): about fifteen
- Potency relative to diazepam (sedative agent, administered by injection): about twice
